Data as given in patent US9670217B2, “Process for preparing chlorins and their pharmaceutical uses” (UNIVERSIDADE DE COIMBRA, priority 2008, dated 2017).

How the values were obtained:
S91I3 (mouse melanoma) = experiment: Cell photosensitization, 748 nm diode laser, resazurin; format: cell-based; settings: 6 J/cm^2 diode laser irradiation at 28.5 mW
Description: The cell lines employed in laser irradiation were the HT-29 (human colon carcinoma), PC-3 (human prostate carcinoma), SW2 (human small cell lung cancer), A-549 (human non-small cell lung cancer). S91/I3 (mouse melanoma) and CT26 (mouse colon carcinoma). They were used both for cytotoxicity and photocytotoxicity experiments. PC-3. SW2 and S91113 cells were cultured in RPMI-1640 medium (Sigma-Aldrich, Steinheim, Germany) and HT-29, A-549 and CT26 cells were cultured in Dulbecco's Modified Eagle Medium (DMEM) (Cambrex Bioscience, Verviers, Belgium). Both cell culture mediums were supplemented with 10% heat-inactivated Fetal Bovine Serum (FBS) (Cambrex Bioscience, Verviers, Belgium) and 100 IU/ml penicillin-100 μg/ml streptomycin (Cambrex Bioscience, Verviers, Belgium). […] For the in vitro studies, cells at 85-90% confluence, were detached with Trypsin-Versene-EDTA solution (Cambrex Bioscience, Verviers, Belgium), counted and seeded in flat-bottom 96-well plates at the desired densities.
Cell viability assay. In the end of the experiences cell viability was evaluated by the resazurin reduction assay. […] The absorbance values of each well were measured at 540 nm and 630 nm using a microplate reader Multiskan Ex (Thermo-Electron Corporation, Vartaa, Finland).
Cell photosensitization. […] Cell viability was evaluated approximately 24 h after the irradiation.

[1] = test system: CT26 mouse colon carcinoma; experiment: PDT of implanted CT26 tumors; format: in vivo, Balb/C mice; settings: 10 mg/kg i.p. in PEG400, 24 h post-injection, 748 nm, 132 J/cm^2
Description: The other mice were Balb/C weighing 20-25 g, from the animal breeding facility of Charles River Laboratories (Barcelona). The mice were kept on a standard laboratory diet with free access to drinking water. The use of such animals for experimental purposes was approved by the Board of Centro de Neurociências e Biologia Celular (Coimbra).
The tumors grew to reach 5 mm in diameter in about one week after the implantation. No spontaneous necrosis was observed. The treatment was initiated when the tumor attained 5 mm in diameter in each animal. The day the tumors reached the treatment size, the mice were injected via i.p. with a dose of 10 mg/kg of Luzitin-FMet in PEG400. At 24 h post-injection, four mice were anesthetized with ketamine and xylazine, and treated with the Hamamatsu 748 nm diode laser described before, at a fluence rate of 100 mW/cm^2 for 22 minutes (total fluence of 132 J/cm^2). Four other mice were not treated and served as control. The mice were checked daily, the tumors were measured using two orthogonal measurements L and W (perpendicular to L) and the volumes were calculated using the formula V=L×W^2/2 and recorded.

O=S(=O)(O)c1ccc(Cl)c(-c2c3nc(c(-c4c(Cl)ccc(S(=O)(=O)O)c4Cl)c4ccc([nH]4)c(-c4c(Cl)ccc(S(=O)(=O)O)c4Cl)c4nc(c(-c5c(Cl)ccc(S(=O)(=O)O)c5Cl)c5ccc2[nH]5)CC4)CC3)c1Cl [Luzitin-Cl2, 5,10,15,20-tetrakis(2,6-dichloro-3-sulfonylphenyl)bacteriochlorin]
concentration of sensitizer required to kill 90% of cells (LD90) (S91I3 (mouse melanoma)): 40 µM

CNS(=O)(=O)c1ccc(F)c(-c2c3nc(c(-c4cc(S(=O)(=O)NC)ccc4F)c4ccc([nH]4)c(-c4cc(S(=O)(=O)NC)ccc4F)c4nc(c(-c5cc(S(=O)(=O)NC)ccc5F)c5ccc2[nH]5)CC4)CC3)c1 [Luzitin-FMet, 5,10,15,20-tetrakis(2-fluoro-5-N-methylsulfamoylphenyl)bacteriochlorin]
tumor size after PDT vs non-irradiated controls [1]: smaller than the average size of the control animals and in one case the tumor completely disappeared
